Measurements from paper PMC6766655, “AhR–ROR-γt complex is a therapeutic target for MAP4K3/GLK^highIL-17A^high subpopulation of systemic lupus erythematosus” (The FASEB Journal, 2019).

Tests used:
[1] = biological target: T1, GLK (MAP4K3) (Homo sapiens, UniProt Q8IVH8); experiment: In vitro kinase assay, myelin basic protein as substrate (ADP-Glo); format: biochemical; settings: recombinant kinase domain
T1 construct: Recombinant proteins of kinase domains of various MAP4Ks were used; purchased Promega
T1 sequence (Q8IVH8 16-273 limits assumed): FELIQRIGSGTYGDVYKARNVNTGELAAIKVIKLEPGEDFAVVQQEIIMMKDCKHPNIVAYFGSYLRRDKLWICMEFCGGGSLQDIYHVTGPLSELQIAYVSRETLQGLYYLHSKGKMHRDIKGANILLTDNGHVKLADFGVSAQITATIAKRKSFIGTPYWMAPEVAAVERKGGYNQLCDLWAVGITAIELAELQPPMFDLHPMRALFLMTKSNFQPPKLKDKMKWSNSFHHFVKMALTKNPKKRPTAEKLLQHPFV
Procedure: GLK kinase activity was determined by measuring the rate of ADP production in the in vitro kinase reaction using ADP-Glo Kinase Assay Kit (Promega). For the kinase reaction, recombinant proteins of the GLK kinase domain (1 μg) were incubated with recombinant proteins of kinase-dead PKC-θ (K409W; 0.15 μg) plus ATP (0.1 mM) or myelin basic protein (MilliporeSigma) plus ATP (0.1 mM) in kinase buffer [40 mM Tris-HCl (pH 7.5), 20 mM MgCl2, 0.1 mg/ml bovine serum albumin, 10 mM DTT, and 0.1 mM Na3VO4] for 30 min at room temperature.

[2] = biological target: T2, HGK (MAP4K4) (Homo sapiens, UniProt O95819); experiment: as above; format: biochemical; settings: recombinant kinase domain
T2 construct: Recombinant proteins of kinase domains of various MAP4Ks were used; purchased Promega

[3] = test system: GLK-induced NF-κB luciferase activity of CHO-GLK-Luc cells; experiment: Cell-based NF-κB luciferase reporter assay in GLK-transfected CHO-K1 cells; set-up: species or system Chinese hamster; settings: stable GLK-transfected CHO-K1 cells; Fig. 3A
Procedure: Cell-based high‐throughput screening was conducted against a representative library of 100,000 molecules at ∼10 μM. The Chinese hamster ovary CHO-K1 (ATCC, CCL-61) cells expressing GLK and NF-κB luciferase (Luc) reporter were used. The reaction volume was 5 μl (500 cells) per well in 1536‐well plates. There was no positive control. This high‐throughput screening campaign was successful, with a determined Z' factor of 0.57 ∼ 0.60. […] At the end, 1392 compounds were identified for high inhibition (>80%) of the GLK-induced NF-κB luciferase activity of CHO‐GLK‐Luc cells. These 1392 compounds were further screened for the inhibition of GLK kinase activity by in vitro kinase assays using the kinase-dead PKC-θ protein as the substrate. From the screening, 2 potential small-molecule GLK inhibitors [half maximal inhibitory concentration (IC50) < 10 μM] were identified.
Figure 3 Verteporfin (C1) blocks the AhR–ROR-γt complex in human autoimmune T cells. A) Luciferase activity of NF-κB–driven reporter assays in stable GLK-transfected CHO-K1 cells that were treated with or without C1 under the indicated concentration. The fold changes are presented relative to the value of vector control. […] D) Quantification of the PLA signals shown in panel C. *P < 0.05, ***P < 0.001 (2-tailed Student’s t test).

[4] = test system: in vitro differentiated Th17 cells; experiment: IL-17A production of in vitro differentiated Th17 cells stimulated with PMA plus ionomycin (flow cytometry); format: cell-based, murine; settings: 1 or 5 μM for 30 min
Procedure: Supplementary Figure 5. Verteporfin inhibits both Th17 differentiation and IL-17A production from in vitro differentiated Th17 cells. (A) Flow cytometry of IL-17A-producing CD4^+ T cells. Splenic T cells were co-treated with verteporfin (C1) (1 or 5 μM) during Th17 differentiation in vitro (for 3 days). (B) Flow cytometry of IL-17A-producing CD4^+ T cells. Murine in vitro differentiated Th17 cells were stimulated with PMA plus ionomycin and co-treated with verteporfin (C1) (1 or 5 μM) for 30 min. Data shown are representatives of two independent experiments.

T2 sequence (O95819 25-289 limits assumed): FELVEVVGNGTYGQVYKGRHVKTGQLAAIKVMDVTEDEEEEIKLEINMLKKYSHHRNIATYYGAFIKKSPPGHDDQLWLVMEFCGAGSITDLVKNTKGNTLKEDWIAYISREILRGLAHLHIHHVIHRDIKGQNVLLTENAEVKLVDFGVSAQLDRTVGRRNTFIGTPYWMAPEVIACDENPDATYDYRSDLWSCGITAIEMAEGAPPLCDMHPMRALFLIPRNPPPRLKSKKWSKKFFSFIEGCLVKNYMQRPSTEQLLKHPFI

In the case of verteporfin, the IC50 [1] is reported as 1.15 nM, the IC50 [2] is reported as 4.92 nM and the “GLK signaling in cell lines (NF-κB-driven luciferase activity)” value [3] is reported as “efficiently inhibited”. For the same substance, the “IL-17A production from in vitro differentiated Th17 cells” value [4] was “inhibited” and the “IL-17A production from in vitro differentiated Th17 cells” value ([4]; listed as Verteporfin) was “inhibits”.
